Consider 43 compounds from ChEMBL document CHEMBL1155888, “Synthesis, inhibitory activities, and QSAR study of xanthone derivatives as alpha-glucosidase inhibitors” (Bioorg Med Chem, 2008).

The assay can be described thus: Inhibition of yeast alpha glucosidase in phosphate buffer after 0.5 hrs by spectrophotometry. Also on record: species or system Saccharomyces.

The compound `O=c1c2ccccc2oc2cc(O)cc(O)c12` displayed a half-inhibitory concentration (IC50) of 161 µM. Under `O=c1c2cc3ccccc3cc2oc2c([N+](=O)[O-])c(O)cc(O)c12` stands 20.1 µM; under `Oc1cc(O)c2c(c1)Oc1cc3ccccc3cc1C2`, 27.8 µM. For `O=c1c2ccc(OCC3CO3)cc2oc2cccc(O)c12` (stereo not drawn), half-maximal inhibition (IC50) required 63.5 µM. `Nc1c(O)cc2oc3cc4ccccc4cc3c(=O)c2c1O`: the IC50 stood at 6.3 µM. In turn, `COc1cc(O)c2c(=O)c3cc4ccccc4cc3oc2c1` displayed an IC50 of 31.3 µM.

Turning to `O=c1c2cc3ccccc3cc2oc2c3c(cc(O)c12)OCCC3`, the IC50 amounted to 67.3 µM. Compared with the last compound, the IC50 is about 2.2-fold higher. `O=c1c2ccccc2oc2c([N+](=O)[O-])c(O)cc(O)c12` came in with an IC50 of 235 µM.

The compound `O=c1c2c(O)cc(O)cc2oc2cc(O)cc(O)c12` had an IC50 of 17.1 µM.

`O=c1c2cc3ccccc3cc2oc2cc(O)c([N+](=O)[O-])c(O)c12` displayed an IC50 of 5.9 µM. For `O=c1c2cc3cc(O)ccc3cc2oc2cc(O)cc(O)c12`, 5.8 µM corresponded to half-maximal inhibition (IC50).

The compound `O=c1c2cc3cccc(O)c3cc2oc2cc(O)cc(O)c12` gave an IC50 of 8 µM. In the case of `COc1cc(O)c2c(=O)c3ccccc3oc2c1` it was 173 µM; in that of `O=c1c2c(O)cc(O)cc2oc2ccc3ccccc3c12`, 39.9 µM; in that of `CCCCCCCCCCOc1cc(O)c2c(=O)c3ccccc3oc2c1`, 116 µM. In the case of `O=c1c2c(O)cccc2oc2cc(O)cc(O)c12` it was 81.8 µM; in that of `O=c1c2ccc(O)cc2oc2cc(O)cc(O)c12`, 41.5 µM; in that of `CC(=O)Oc1cc(OC(C)=O)c2c(=O)c3c(OC(C)=O)cc(OC(C)=O)cc3oc2c1`, 49.7 µM. Under `O=c1c2ccccc2oc2cc(OCCCN3CCCCC3)cc(O)c12` stands 115 µM; under `O=c1c2cc3ccccc3cc2oc2cc(O)cc(O)c12`, 9.3 µM; under `O=c1c2ccccc2oc2cc(OCC3CCCO3)cc(O)c12` (stereo not drawn), 53 µM. In the case of `CCCCCCCOc1cc(O)c2c(=O)c3ccccc3oc2c1`, the IC50 was found to be 114 µM.

`CC(=O)Oc1cc(OC(C)=O)c2c(=O)c3ccccc3oc2c1` had an IC50 of 31.9 µM.

In turn, `CCCCCCCCOc1cc(O)c2c(=O)c3ccccc3oc2c1` displayed an IC50 of 124 µM. Under `O=c1c2ccccc2oc2cc(OCCCBr)cc(O)c12` stands 147 µM. Under `CCCCOc1cc(O)c2c(=O)c3ccccc3oc2c1` stands 130 µM. Under `Oc1cc(O)c2c(c1)Oc1ccc3ccccc3c1C2` stands 34.9 µM; under `CCCCCOc1cc(O)c2c(=O)c3ccccc3oc2c1`, 121 µM; under `O=c1c2cc(O)ccc2oc2cc(O)cc(O)c12`, 14.7 µM. Compound `O=c1c2ccc(OCCCN3CCCCC3)cc2oc2cccc(O)c12` registered an IC50 of 133 µM. Under `CC(=O)Oc1ccc2c(=O)c3c(OC(C)=O)cccc3oc2c1` stands 139 µM.

As to `O=c1c2c(O)cccc2oc2cccc(O)c12`, the IC50 came to 91.5 µM. Compound `O=c1c2ccc(O)cc2oc2cccc(O)c12` displayed an IC50 of 131 µM. `O=c1c2ccccc2oc2cc(OCCCN3CCN(c4cccc(Cl)c4)CC3)cc(O)c12` yielded an IC50 of 61.8 µM. In the case of `O=c1c2ccccc2oc2c3c(cc(O)c12)OCCC3` it was 198 µM. In the case of `Nc1c(O)cc(O)c2c(=O)c3ccccc3oc12` it was 102 µM; in that of `CC(=O)Oc1cc(OC(C)=O)c2c(=O)c3cc(OC(C)=O)ccc3oc2c1`, 46.5 µM; in that of `O=c1c2ccccc2oc2cccc(O)c12`, 177 µM. Under `O=c1c2ccccc2oc2cc(OCc3ccccc3)cc(O)c12` stands 98.2 µM; under `O=c1c2cc3ccccc3cc2oc2cc(OCCCBr)cc(O)c12`, 29.7 µM. `Nc1c(O)cc(O)c2c(=O)c3cc4ccccc4cc3oc12` displayed an IC50 of 8.3 µM.

In turn, `O=c1c2ccccc2oc2cc(OCC3CO3)cc(O)c12` (stereo not drawn) yielded an IC50 of 66.6 µM. On to `CCOc1cc(O)c2c(=O)c3ccccc3oc2c1`, for which the IC50 is 111 µM. Against the preceding compound, the IC50 is about 1.7-fold higher.

The IC50 is the concentration needed to halve the response being measured.
